From patent US7880042B2, “Tetrahydronaphthalene derivatives, methods for the production thereof, and the use thereof as antiphlogistics” (Bayer Schering Pharma AG, priority 2006, dated 2011) come the findings set out here.

Each structure is given as a SMILES string. Where two headings read alike, the source gives them in different places.

For test [1], the system named is lipopolysaccharide (LPS)-initiated secretion of the cytokine IL-8 in the human THP-1 monocyte cell line. Nature of the test: Inhibition of LPS-initiated IL-8 secretion in THP-1 cells. In kind it is cell-based. As to conditions: for IC50 / Emax: Homo sapiens; for IC50: read-out: IL8 IC50; for Emax: read-out: IL8 eff; for Diss. (TATEC50/IL8IC50): ratio TAT EC50 / IL8 IC50.

For test [2], the system named is tyrosine aminotransferase (TAT). Briefly: TAT induction in vitro. The test is classed as cell-based. As to conditions: for Emax: read-out: TAT eff.
Setting [3] is: THP-1, prior-art compounds (WO2005/034939).
Setting [4] is: prior-art compounds (WO2005/034939).
Where [5] appears, read: THP-1, inventive stereoisomers, efficacy of IL-8 inhibition.
The mark [6] stands for this setting: inventive stereoisomers, LPS-initiated IL-8 secretion, THP-1 cells.
Setting [7] is: inventive stereoisomers, efficacy of TAT induction.
The mark [8] stands for this setting: inventive stereoisomers, in vitro TAT induction.
[9] abbreviates: inventive stereoisomers, in vitro TAT induction, cells printed in μM.

What is called IC50 is the concentration needed to halve the response being measured. Broadly, the EC50 is the midpoint of the concentration-response curve. Higher therefore signals lower potency in that assay. Turning to `CC1(C)CC(O)(C(F)(F)F)C(Nc2cc(F)cc3[nH]ncc23)c2ccc(F)c(O)c21` (centres unmarked) [reference compound], in test [1] (setting [3]), the IC50 is 20 nM and the Emax worked out at 88%. In addition, the “Diss. (TATEC50/IL8IC50)” value in test [1] (setting [4]) worked out at 0.22. Besides, in test [2] (setting [4]), the EC50 worked out at 0.0043 µM and the Emax was found to be 100%.
Turning to `CC[C@@H]1C[C@](O)(C(F)(F)F)[C@@H](Nc2cc(F)cc3nc(C)ncc23)c2ccc(F)c(O)c21` [Example 30A, (5S,6R,8R)-8-Ethyl-2-fluoro-5-[(7-fluoro-2-methylquinazolin-5-yl)amino]-6-(trifluoromethyl)-5,6,7,8-tetrahydronaphthalene-1,6-diol], the Emax in test [1] (setting [5]) was determined as 89%; in test [2] (setting [7]), 95%. In addition, the IC50 in test [1] (setting [6]) is 6.6 nM. Also, the “Diss. (TATEC50/IL8IC50)” value in test [1] (inventive stereoisomers) is 2.8. For the same compound, the EC50 in test [2] (setting [8]) came to 0.017 µM.
For the compound `Cc1ncc2c(NC3c4ccc(Cl)c(O)c4C(C)(C)CC3(O)C(F)(F)F)ccc(F)c2n1` (centres unmarked) [reference compound], in test [1] (setting [3]), the IC50 turned out to be 22 nM and the Emax turned out to be 73%. Also, the “Diss. (TATEC50/IL8IC50)” value in test [1] (setting [4]) is given as 0.14. In test [2] (setting [4]), the EC50 is 0.003 µM and the Emax was 98%.
`CC[C@@H]1C[C@](O)(C(F)(F)F)[C@@H](Nc2cccc3c(=O)[nH]ccc23)c2cc(Cl)c(C)c(O)c21` [Example 121B, 5-{[(1S,2R,4R)-7-chloro-2,5-Dihydroxy-6-methyl-4-ethyl-2-(trifluoromethyl)-1,2,3,4-tetrahydronaphthalen-1-yl]amino}-2H-quinolin-1-one]: the results for the Emax in test [1] (setting [5]) and in test [2] (setting [7]) were 88% and 99%, respectively. Moreover, the IC50 in test [1] (setting [6]) is 3.7 nM. The “Diss. (TATEC50/IL8IC50)” value in test [1] (inventive stereoisomers) was determined as 81. Also, in test [2] (setting [8]), the EC50 was determined as 0.3 µM.
As to `CCC1CC(O)(C(F)(F)F)C(Nc2cccc3nc(C)ccc23)c2ccc(F)c(O)c21` (centres unmarked) [reference compound], in test [1] (setting [3]), the IC50 was 220 nM and the Emax was 69%. In addition, in test [1] (setting [4]), the “Diss. (TATEC50/IL8IC50)” value was 0.64. Also, in test [2] (setting [4]), the response was half-maximal at 0.14 µM (EC50) and the Emax was determined as 88%.
For the compound `CC[C@@H]1C[C@](O)(C(F)(F)F)[C@@H](Nc2cc(F)cc3nc(C)ncc23)c2cc(F)c(F)c(O)c21` [Example 51A, (5α,6α,8β)-8-Ethyl-2,3-difluoro-5-[(7-fluoro-2-methylquinazolin-5-yl)amino]-6-(trifluoromethyl)-5,6,7,8-tetrahydronaphthalene-1,6-diol], the Emax in test [1] (setting [5]) turned out to be 72%; in test [2] (setting [7]) it was 81%. Also, the half-maximal inhibitory concentration (IC50) in test [1] (setting [6]) was 13 nM. In addition, in test [1] (inventive stereoisomers), the “Diss. (TATEC50/IL8IC50)” value is listed as 11.5. Besides, the concentration for a half-maximal effect (EC50) in test [2] (setting [8]) stood at 0.15 µM.
Taken in the same sequence, the figures for `CC[C@H]1C[C@](O)(C(F)(F)F)[C@@H](Nc2cccc3[nH]c(=O)ccc23)c2ccc(F)c(O)c21` (stereo in doubt) [Example 43, 5-{[(1α,2α,4α)-4-Ethyl-6-fluoro-2,5-dihydroxy-2-(trifluoromethyl)-1,2,3,4-tetrahydronaphthalen-1-yl]amino}quinolin-2(1H)-one] were 88%, 100%, 12 nM, 3.6 and 0.043 µM.
As for `Cc1ncc2c(NC3c4cc(C)c(F)c(O)c4C(C)(C)CC3(O)C(F)(F)F)ccc(F)c2n1` (centres unmarked) [reference compound], in test [1] (setting [3]), the IC50 was 40 nM and the Emax is 79%. Moreover, the “Diss. (TATEC50/IL8IC50)” value in test [1] (setting [4]) was 0.16. Further, in test [2] (setting [4]), it took 0.0065 µM to reach a half-maximal effect (EC50) and the Emax worked out at 100%.
Regarding `CC[C@@H]1C[C@](O)(C(F)(F)F)[C@@H](Nc2cccc3nc(C)ncc23)c2ccc(F)c(O)c21` [Example 29A, (5α,6α,8β)-8-Ethyl-2-fluoro-5-[(2-methylquinazolin-5-yl)amino]-6-(trifluoromethyl)-5,6,7,8-tetrahydronaphthalene-1,6-diol], the Emax in test [1] (setting [5]) came out at 77%; in test [2] (setting [7]) it was 95%. The IC50 in test [1] (setting [6]) was determined as 16 nM. Moreover, the “Diss. (TATEC50/IL8IC50)” value in test [1] (inventive stereoisomers) is on record as 7.5. Besides, the EC50 in test [2] (setting [8]) was 0.12 µM.
Take `CC1(C)CC(O)(C(F)(F)F)C(Nc2cccc3[nH]c(=O)ccc23)c2ccc(F)c(O)c21` (centres unmarked) [reference compound]: in test [1] (setting [3]), the IC50 was 14 nM and the Emax worked out at 68%. The “Diss. (TATEC50/IL8IC50)” value in test [1] (setting [4]) turned out to be 0.27. Besides, in test [2] (setting [4]), the midpoint of the response, the EC50, lay at 0.0038 µM and the Emax stood at 92%.
`CC[C@@H]1C[C@](O)(C(F)(F)F)[C@@H](Nc2cccc3[nH]c(=O)ccc23)c2cc(F)c(F)c(O)c21` [Example 54, 5-{[(1α,2α,4β)-4-ethyl-6,7-difluoro-2,5-dihydroxy-2-(trifluoromethyl)-1,2,3,4-tetrahydronaphthalen-1-yl]amino}quinolin-2(1H)-one]: the Emax in test [1] (setting [5]) worked out at 78%; in test [2] (setting [7]) it was 76%. Also, the IC50 in test [1] (setting [6]) turned out to be 5.7 nM. Further, the “Diss. (TATEC50/IL8IC50)” value in test [1] (inventive stereoisomers) worked out at 86. The same compound yielded a concentration for a half-maximal effect (EC50) in test [2] (setting [8]) of 0.49 µM.
Regarding `Cc1ccc2c(NC3c4ccc(F)c(O)c4C(C(C)C)CC3(O)C(F)(F)F)cccc2n1` (centres unmarked) [Example 65, 2-Fluoro-5-[(2-methylquinolin-5-yl)amino]-8-(Prop-2-yl)-6-(trifluoromethyl)-5,6,7,8-tetrahydronaphthalene-1,6-diol], the Emax in test [1] (setting [5]) was found to be 58%; in test [2] (setting [7]) it was 73%. In test [1] (setting [6]), the half-maximal inhibitory concentration (IC50) amounted to 38 nM. Besides, the “Diss. (TATEC50/IL8IC50)” value in test [1] (inventive stereoisomers) is recorded as 26.3. A half-maximal effect in test [2] (setting [9]) (EC50) was put at 1 µM.
Taken in the same sequence, the figures for `Cc1ccc2c(N[C@H]3c4ccc(F)c(O)c4[C@H](C)C[C@]3(O)C(F)(F)F)cccc2n1` [Example 1] were 79%, 62%, 22 nM, 45.5 and 1 µM.
For `Cc1ncc2c(NC3c4cc(Cl)c(F)c(O)c4C(C)(C)CC3(O)C(F)(F)F)cc(F)c(F)c2n1` (centres unmarked) [reference compound], in test [1] (setting [3]), the IC50 is 31 nM and the Emax was found to be 96%. Also, in test [1] (setting [4]), the “Diss. (TATEC50/IL8IC50)” value turned out to be 0.14. In addition, in test [2] (setting [4]), the response was half-maximal at 0.0042 µM (EC50) and the Emax stood at 100%.
For the compound `CCC1CC(O)(C(F)(F)F)C(Nc2cccc3[nH]c(=O)ccc23)c2cc(F)cc(O)c21` (centres unmarked) [Example 75, 5-{[4-Ethyl-7-fluoro-2,5-dihydroxy-2-(trifluoromethyl)-1,2,3,4-tetrahydronaphthalen-1-yl]amino}quinolin-2(1H)-one], the Emax in test [1] (setting [5]) amounted to 68%; in test [2] (setting [7]), 89%. In addition, in test [1] (setting [6]), the IC50 was 7.1 nM. In addition, in test [1] (inventive stereoisomers), the “Diss. (TATEC50/IL8IC50)” value came to 16.9. In test [2] (setting [8]), this compound yielded an EC50 of 0.12 µM.
Taken in the same sequence, the figures for `CC[C@H]1C[C@](O)(C(F)(F)F)[C@@H](Nc2cc(F)cc3[nH]c(=O)ccc23)c2ccc(Cl)c(O)c21` (stereo in doubt) [Example 101, 5-{[(1α,2α,4α)-6-Chloro-2,5-Dihydroxy-4-ethyl-2-(trifluoromethyl)-1,2,3,4-tetrahydronaphthalen-1-yl]amino}-7-fluoro-1H-quinolin-2-one] were 92%, 97%, 1.8 nM, 41 and 0.074 µM.
